Reference: patent US9018165B2, “Process for the synchronization of ovulation for timed breeding without heat detection” (priority 2003, dated 2015)

Key:
[1] = system: mature postpartum sows; assay: Intravulvar injection at estrus detection with AI in mature postpartum sows (Example 2); assay type: in vivo, swine; conditions: 50 mcg intravulvar at first estrus detection
Method: Sows were assigned randomly in blocks of two to either control or to be injected intravulvar with 50 mcg of deslorelin in SAIB at the time of estrus detection for sows first detected in estrus in the a.m. and 12 hours later for those first detected in estrus in the p.m. Treated animals were bred AI upon detected estrus and again 24 hours later if still in estrus. Controls received a saline injection on first detected estrus behavior estrus detection and were bred according to the farm's normal procedures.

[2] = system: postpartum sows; assay: Timed injection 96 hours post-weaning and single timed insemination without estrus detection (Example 3); assay type: in vivo, swine; conditions: 50 mcg in SAIB 96 hours post-weaning; single insemination 28+/-2 hours later
Method: Approximately 170 postpartum sows were randomly divided into two equal groups comprised of controls and treated. Following weaning, the controls were detected for estrus and bred following the normal standard operating procedures for the farms on which they resided. The treated sows received a 50 mcg dose of deslorelin in SAIB at 96 hours post-weaning and were bred with a single insemination 28+/−2 hours later with no regard to estrus detection. The sows were examined for pregnancy by ultrasound at 21 days and slaughtered around 28 days post breeding. The entire reproductive tract was removed and corpora lutea and embryos were counted.

CCNC(=O)[C@@H]1CCCN1C(=O)[C@H](CCCN=C(N)N)NC(=O)[C@H](CC(C)C)NC(=O)[C@@H](Cc1c[nH]c2ccccc12)NC(=O)[C@H](Cc1ccc(O)cc1)NC(=O)[C@H](CO)NC(=O)[C@H](Cc1c[nH]c2ccccc12)NC(=O)[C@H](Cc1cnc[nH]1)NC(=O)[C@@H]1CCC(=O)N1 [Deslorelin, deslorelin]
difference in pregnancy rates, Control versus Treated (in words) [1]: no significant difference | Embryo Survival [2]: 64%
